Where two headings read alike, the source gives them in different places.
Key:
[1] = mouse, in vivo
Method: (§2) Each of the three compounds was dissolved in DMSO (20 mg/mL), mixed with 30% hydroxypropyl-β-cyclodextrin at a 1:9 ratio, and administered to the CD-1 mice intraperitoneally (ip) or orally (po) through a gavage. After compound administration, blood samples (3 mice per compound) were collected at nine time points, i.e., at 5 minutes, 0.25 hours, 0.5 hours, 1 hour, 2 hours, 4 hours, 8 hours, 12 hours, and 24 hours, through the tail vein. Plasma was isolated from these blood samples and the compound plasma concentrations were determined by HPLC-MS/MS. Pharmacokinetic parameters were calculated using the program PKSolver, an add-in program for use in analyzing pharmacokinetic and pharmacodynamics data analysis, as described in Zhang et al., Computer Methods and Programs in Biomedicine, 99: 306-314 (2010).

[2] = test system: SRC-1, SRC-2 or SRC-3 fused with the DNA binding domain of Gal4; test: Gal4 luciferase reporter (pG5-luc / pBIND-SRC) in HeLa cells; format: cell-based; conditions: pG5-luc + pBIND-SRC-1, -2 or -3
Excerpt: The compounds described herein stimulate SRC intrinsic transcriptional activity. HeLa cells transfected with a Gal4 responsive luciferase reporter (pG5-luc) and a construct encoding SRC-1, SRC-2 or SRC-3 fused with the DNA binding domain of Gal4 (pBIND-SRC-1, pBIND-SRC-2 or pBIND-SRC-3) were exposed to treatments with compounds as described herein, including MCB-613, Compound 10-1, and Compound 10-2.

[3] = in vivo; conditions: CD-1, mouse
Method: as §2

[4] = test system: mice after myocardial infarction; test: Myocardial infarction model, permanent LAD ligation (echocardiography, histology, immunostaining, PET, EM); format: in vivo, ICR (CD1) mice; conditions: six weeks post-MI, picrosirius red
Method: Model of heart failure in adult mice. To induce myocardial infarction (MI) in 8- to 10-week-old mice, the left anterior descending (LAD) artery was permanently ligated. Briefly, mice were anesthetized with 2% isoflurane and then intubated. The heart was exposed by performing a thoracotomy through the fourth or fifth intercostal space and an 8-0 nylon suture was tied around the LAD artery. 10 uls of Adenoviral SRC-3 (Ad-SRC-3) or adenoviral GFP (Ad-GFP) at a titre of 9×10^9 pfu/ml was injected into the anterior free wall near left ventricular descending coronary artery. To assess cell cycle entry, the analog 5-ethynyl-2′-deoxyuridine (EdU; 0.2 g/L, Santa Cruz, SC-284628A) was added to the drinking water for the 9 day duration of the experiment. Cell proliferation was measured using Click-iT EdU kit (Invitrogen, C10339). The initial dose of MCB-613 was administered intraperitoneally at 20 mg/kg 2 hours after surgery. Subsequent injections of the same dose were given for 6 additional days, and then repeated doses were given for 3 days at week 9 and week 16. Mice were harvested at indicated time points for analyses.
Echocardiography. Cardiac function was determined by echocardiography (VisualSonics, Vevo 2100, 40 Mhz-550S probe). After alignment in the transverse B-mode with the papillary muscles, cardiac function was measured on M-mode images.
(§1) Histological analysis. Whole hearts were fixed with 10% formalin, embedded in paraffin, and sectioned at 7 μm intervals. Each slide had 3 or 10 sections, which started at the apex and ended at the suture ligation site (approximately 30-50 slides). Sections at the papillary level (slides 20-30) were stained with Picrosirius red to identify areas of fibrosis. Infarct size was determined using a length-based approach.
Immunostaining analysis. Immunohistochemistry and immunofluorescent staining experiments were performed on FFPE (formalin-fixed and paraffin-embedded sections). TUNEL staining to detect apoptotic cells was done using the DeadEnd™ Fluorometric TUNEL System manufacturer's protocol (Promega, GS3250).
Model of heart failure in adult mice. To induce MI in eight- to ten-week-old mice, the left anterior descending (LAD) artery was permanently ligated. Briefly, mice were anesthetized with 2% isoflurane and then intubated. The heart was exposed by performing a thoracotomy through the fourth or fifth intercostal space and an 8-0 nylon suture was tied around the LAD. The initial dose of MCB-613 was administered intraperitoneally at 20 mg/kg, two hours after surgery. Subsequent injection at the same time of the day and same dose were given for six additional days, and then repeated doses were given for three days at week nine and week 16. Mice were harvested at the indicated time points for analyses.
Echocardiography. Cardiac function was determined by echocardiography (VisualSonics, Vevo 2100, 40 Mhz-550S probe). After alignment in the transverse B-mode with the papillary muscles, cardiac function was measured on M-mode images. Animal numbers for cardiac function in FIG. 11A are Day 0 control (17); MCB-613 (15), Day 1 control (10); MCB-613 (12), Day 14 […], Day 56 control (12); MCB-613 (15), Day 70 control (8); MCB-613 (10), Day 80 control (8); MCB-613 (11), Day 133 control (3); and MCB-613 (3).
as §1, with “three (3) to ten (10)” for “3 or 10”, “approach. TUNEL staining to detect apoptotic cells was performed using the DeadEnd™ Fluorometric TUNEL System (Promega, GS3250).” for “approach.”
Electron Microscopy. […]

[5] = test system: mice after myocardial infarction; test: Progressive maximal exercise test, indirect calorimetry (VO2, VCO2); format: in vivo; conditions: after myocardial infarction
Method: RER, VO2 and VCO2 measurements. Respiratory exchange ratio (RER), oxygen consumption (VO^2) and carbon dioxide expiration (VCO2) were measured by indirect calorimetry using a progressive maximal exercise test until mice reached exhaustion.
RER, VO2 and VCO2 measurements. RER, VO2 and VCO2 were measured by indirect calorimetry using a progressive maximal exercise test until mice reached exhaustion.

Row | Structure (SMILES) | Cl ([1]; ip) | Cl ([1]; po) | intrinsic transcriptional activity of SRCs (luciferase) [2] | AUC(0-inf) ([3]; ip) [ng·h/mL] | AUC(0-t) ([3]; ip) [ng·h/mL] | Cmax ([3]; ip) [ng/mL] | Tmax ([3]; ip) [min] | half-life ([3]; ip, Terminal phase t1/2) [min] | half-life ([3]; ip, t1/2) [min] | AUC(0-inf) ([3]; po) [ng·h/mL] | AUC(0-t) ([3]; po) [ng·h/mL] | Cmax ([3]; po) [ng/mL] | Tmax ([3]; po) [min] | half-life ([3]; po, Terminal phase t1/2) [min] | half-life ([3]; po, t1/2) [min] | infarct size vs saline control [4] | cardiovascular fitness (VCO2, VO2, FIG. 9) [5]
1 | COc1ccccc1/C=C1\CN(CCC(C)C)C/C(=C\c2ccccc2OC)C1=O [Compound 10-1, (3E,5E)-1-isopentyl-3,5-bis(2-methoxybenzylidene)piperidin-4-one] | 0.97 (mg)/(ng/mL)/h | 7.3 (mg)/(ng/mL)/h | selectively stimulates the intrinsic transcriptional activity of SRCs | 851 | 623 | 357 | 15 | 1090 | 38.4 | 113 | 98.4 | 53.2 | 30 | 612 | 72 | decrease in infarct size | improves cardiovascular fitness after myocardial infarction
2 | COc1cccc(/C=C2\CN(CCC(C)C)C/C(=C\c3cccc(OC)c3)C2=O)c1 [Compound 10-2, (3E,5E)-1-isopentyl-3,5-bis(3-methoxybenzylidene)piperidin-4-one] | 1.7 (mg)/(ng/mL)/h | 6.1 (mg)/(ng/mL)/h | selectively stimulates the intrinsic transcriptional activity of SRCs | 482 | 334 | 463 | 4.8 | 954 | 15 | 135 | 131 | 182 | 15 | 1630 | 46.8 |  | 

Source: US12338229B2, “Small molecule stimulators of steroid receptor coactivator-3 and methods of their use as cardioprotective and/or vascular regenerative agents” (BAYLOR COLLEGE OF MEDICINE, priority 2018, dated 2025)
